In US20090264382A1, “Methods for Treating Hematopoietic Neoplasms” (priority 2007, published 2009):

Experiments:
leukemic cells [1] = assay: Release of mitochondrial membrane proteins, immunofluorescence; assay type: cell-based, human; conditions: after CA4P exposure, data not shown
Description: Mitochondrial damage may result in the release of pro-apoptotic mitochondrial membrane proteins (MMPs) such as cytochrome c, SMAC/diablo and ARTS. […] Cytochrome c and ARTS were detected using mAb clone 6H2.B4 (1:100, BD Pharmingen) and polyclonal-antibody A3720 (1:50, Sigma), both followed by AlexaFluor 488 conjugated secondary antibody (1:200, Molecular Probes) and analyzed by confocal microscopy.

[2] = tested on: human umbilical cord derived (CB) CD34+ cells; assay: Cord blood CD34+ cell viability and colony formation; assay type: cell-based
Method: Cord blood CD34+ cells were isolated by magnetic procedure and cultured with recombinant human SCF (50 ng/ml, Peprotech) and CA4P for 48 h. Annexin/PI staining was then performed. CD34+ cells were also cultured in methylcellulose supplemented with cytokines and CA4P (Stem cell technologies, Vancouver, Canada) for 14 days. Colonies were scored. […] As such, CA4P used as single agent can selectively target circulating and or tissue-resident hematopoietic neoplasms without incurring significant hematological toxicity.

KG1a leukemic cells = assay: Release of nuclear HMG1 protein into supernatant (necrosis marker), Western blot; assay type: cell-based, human; conditions: 24 hours, CA4P 20 mM, staurosporine 100 μM as printed
Method: Nonetheless, to rule out the possibility that CA4P may trigger necrotic cell death in subsets of the leukemic cells, the release of nuclear HMG1 protein into the culture supernatant, which has been described as a sensitive and highly specific marker for necrotic cell death (Scaffidi, et al. 2002. Nature 418, 191-5), was quantified. For detection of HMG1 protein, KG1a leukemic cells (1×106 in 2 ml X-vivo/5% FBS) were incubated with 100 μM staurosporine to induce apoptosis, freeze-thawed three times to induce necrosis, or treated with 20 mM CA4P for 24 hours. Cells were spun down, pelleted and the supernatant subjected to Western blot for HMG135.

leukemic cells [3] = assay: Intracellular ROS detection with H2DCFDA; assay type: cell-based, human; conditions: after CA4P exposure
Method: Intracellular ROS were detected as previously described (Krejsa & Schieven, Methods Mol Biol 99:35-47 (2000)). Briefly, leukemic cells were loaded with 2 μM H2DCFDA (Molecular Probes) in assay buffer (RPMI with 10 mM HEPES) for 30 min. at 37° C. and mean fluorescent intensity was measured by flow cytometry. Results are shown from triplicate measurements (±SEM) and are representative of three independent experiments (*p<0.05 as compared with untreated cells; n=3).

AML cell lines = assay: Annexin-V/propidium iodide apoptosis by flow cytometry; assay type: cell-based, human; conditions: 48 hours
Method: CA4P-treated AML cells were subjected to Annexin-V/propidium iodide (PI) staining and quantification by flow cytometry. Combretastatin A-4 phosphate (CA4P) induces caspase-independent apoptosis in leukemic cells. CA4P induces apoptosis of leukemic cells. Leukemic cells were treated with or without CA4P for 48 hours and the percentage of apoptotic leukemic cells was determined by Annexin V and propidium iodide staining using flow cytometry. Results are representative of three independent experiments. […] In the majority of AML cell lines tested, CA4P at a concentration of 5 nM induced phosphatidylserine externalization (Annexin V+) in more than 50% of the leukemic cells.

VCAM-1 = assay: IL-1β-induced VCAM-1 expression in HUVECs, flow cytometry; assay type: cell-based, human; conditions: 1 to 5 nM
Method: Human umbilical vein endothelial cells (HUVECs) were activated with IL-1β (5 ng/ml) for 24 hours with CA4P added at concentrations from 0 to 5 nM. VCAM-1 expression was determined by flow cytometry with phytoerythrin-conjugated anti-CD106 (VCAM-1) mAb.

GFP-labeled U937 cells = assay: Systemic in vivo leukemia model, GFP+U937; parameters: species or system NOD-SCID mice; conditions: after 30 days, data not shown
Method: NOD-SCID mice were intravenously inoculated with 1×10^7 GFP+HL60 cells. The HL60 cells were labeled with green fluorescent protein (GFP) by a lentiviral construct, and inoculated systemically through tail vein injection. Three days after inoculation, mice were divided into 2 groups of five mice. One group was treated every other day with PBS (control) and the second group received 25 mg/kg CA4P every other day. Each experiment was done three times. At day 30 after the start of the experiment, two mice from each group were killed, and their organs (spleen, liver and lung), peripheral blood and marrow of surgically removed femurs were collected, and analyzed for the presence of human leukemic cells by flow cytometry. Single cell suspension was stained using phytoerythrin-labeled anti-human CD45 mAb (Pharmingen), and the percentage of double positive human CD45-PE and GFP cells was determined flow cytometer. The extent of GFP+HL60 cell infiltration was assessed by fluorescence microscopy. In a second set of experiments, GFP+U937 cells were used instead of HL60 cells, and the animals sacrificed after 30 days. […]

HL60 subcutaneous tumors = assay: Subcutaneous in vivo leukemia model; parameters: species or system NOD-SCID mice
Method: HL60 (5×10^6 cells) were injected subcutaneously into the dorsa of seven-week-old NOD-SCID mice (Jackson Laboratory). When mice bore a tumor (i.e. after 12 days), 4 experimental groups were randomized, each with 9 animals. Daily treatment was initiated at this time: the CA4P groups were subjected to intraperitoneal injection of CA4P at 10, 25 and 50 mg/kg body weight, and the control group received PBS. After a 3-day treatment, animals were sacrificed, tumors removed and then subjected to immunohistochemical analysis. Tumors were embedded in paraffin, serially sectioned, and stained with hematoxylin and eosin for histological analysis. Cell death was assessed by TUNEL assay. Cell death within paraffin-embedded tumor sections was detected by TUNEL reaction (Roche Diagnostics). The detection of cell death in this assay relies on the detection of free 3′OH DNA ends.
Tumors from mice treated with CA4P for 3 days were softer and hemorrhagic (particularly when treated with 50 mg/kg) than those observed in the control group. […] The control tumor sections were negative for TUNEL reaction. […] The extent of intra-tumor vascularization within the different groups was assessed by immunostaining for the endothelial-specific antigen MECA-32. […] The neo-vessel density was evaluated by microscopic counting of 5 fields at 10× magnification, and presented as mean number of microvessels per microscopic field±SEM (*p<0.05 as compared with the PBS control group; n=5). The decrease in intra-tumor vascularization induced by CA4P was dose dependent (54±13%, 68±6% and 90±3% decrease for 10, 25 and 50 mg/kg, respectively).

In the case of `COc1ccc(/C=C\c2cc(OC)c(OC)c(OC)c2)cc1OP(=O)(O)O` [CA4P, combretastatin A-4 phosphate], the “mitochondrial membrane protein release” value (leukemic cells [1]) is reported as “release of cytochrome c and ARTS from mitochondria”, the “CD34+ cell viability (Annexin/PI staining)” value ([2]; 48 h with SCF 50 ng/ml) is reported as “only minimal effect on cell viability” and the “colony-forming potential of CD34+ cells” value ([2]; methylcellulose, 14 days) is reported as “did not impair colony-forming potential”. The “release of nuclear HMG1 protein into the supernatant” value (KG1a leukemic cells) was “not”, the “intracellular ROS (H2DCFDA fluorescence)” value (leukemic cells [3]) was “rapid accumulation of superoxide anions” and the “leukemic cells with phosphatidylserine externalization (Annexin V+)” value (AML cell lines; 5 nM, majority of AML cell lines tested) was “more than 50%”. The “PI+, Annexin V(−) cells (necrotic)” value (AML cell lines) was “Only a small number”, the “apoptosis of HUVECs” value (VCAM-1) was “without inducing apoptosis” and the “VCAM-1 expression on IL-1β-activated HUVECs” value (VCAM-1; 24 hours, IL-1β 5 ng/ml) was “significantly reduced expression of VCAM-1”. For the same compound, the “GFP-positive U937 leukemic cells in the bone marrow” value (GFP-labeled U937 cells) was “less than 0.05%”, the “GFP-positive U937 leukemic cells in the liver” value (GFP-labeled U937 cells) was “less than 0.05%” and the “decrease in intra-tumor vascularization (MECA-32 microvessel density)” value (“decrease in intra-tumor vascularization” below) (HL60 subcutaneous tumors; 10 mg/kg i.p. daily, 3 days) was 54±13%. For the same compound, the “decrease in intra-tumor vascularization” value (HL60 subcutaneous tumors; 25 mg/kg i.p. daily, 3 days) was 68±6%, the “decrease in intra-tumor vascularization” value (HL60 subcutaneous tumors; 50 mg/kg i.p. daily, 3 days) was 90±3% and the tumor histology (HL60 subcutaneous tumors; 10, 25 and 50 mg/kg, 3 days) was “largely necrotic”. For the same compound, the “cell death in tumor sections (TUNEL)” value (HL60 subcutaneous tumors; low to high doses, data not shown) was “most of the leukemic cells were non-viable”.
